17 compounds from patent US10829473B2, “Modulators of the cystic fibrosis transmembrane conductance regulator protein and methods of use” (AbbVie Overseas S.Á.R.L., priority 2017, dated 2020) can be followed below.

Read-outs that look alike come from different tables or passages of the source.

The test deals with T1, F508delCFTR (Homo sapiens, UniProt P13569, DEL508-508).
T1 construct: expressed in transfected cells; host or cells: CFBE41o- human lung derived epithelial cells (CFBE41o-F508delCFTR-HRP), doxycycline-inducible
Briefly: Cell Surface Expression-Horse Radish Peroxidase (CSE-HRP) Assay.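 On EC50 (with co-corrector): co-corrector chromenyl benzoic acid corrector at 2 or 3 µM.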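 On Maximum % activity (without co-corrector): % of on-plate positive control chromenyl benzoic acid corrector at 2 or 3 µM.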 The class given is cell-based. The conditions noted are these: for Maximum % activity (with co-corrector) / Emax: maximum at any tested concentration; for Emax: read-out: Maximum % activity (without co-corrector). Summed up:
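Corrector compounds were given as 8-point 3-fold series from 20 or 30 μM, with or without a 2 μM co-corrector, for 18-24 h at 33 °C. Surface HRP was read by luminol luminescence as % of positive control; variable-Hill-slope sigmoidal fitting gave EC50 from triplicate plates.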

Setting [1] is: test compound alone, without co-corrector, read-out: EC50 (without co-corrector).
Where [2] appears, read: with co-corrector, read-out: EC50 (with co-corrector).

T1 sequence (P13569 with tags, fused parts or gaps DEL508-508): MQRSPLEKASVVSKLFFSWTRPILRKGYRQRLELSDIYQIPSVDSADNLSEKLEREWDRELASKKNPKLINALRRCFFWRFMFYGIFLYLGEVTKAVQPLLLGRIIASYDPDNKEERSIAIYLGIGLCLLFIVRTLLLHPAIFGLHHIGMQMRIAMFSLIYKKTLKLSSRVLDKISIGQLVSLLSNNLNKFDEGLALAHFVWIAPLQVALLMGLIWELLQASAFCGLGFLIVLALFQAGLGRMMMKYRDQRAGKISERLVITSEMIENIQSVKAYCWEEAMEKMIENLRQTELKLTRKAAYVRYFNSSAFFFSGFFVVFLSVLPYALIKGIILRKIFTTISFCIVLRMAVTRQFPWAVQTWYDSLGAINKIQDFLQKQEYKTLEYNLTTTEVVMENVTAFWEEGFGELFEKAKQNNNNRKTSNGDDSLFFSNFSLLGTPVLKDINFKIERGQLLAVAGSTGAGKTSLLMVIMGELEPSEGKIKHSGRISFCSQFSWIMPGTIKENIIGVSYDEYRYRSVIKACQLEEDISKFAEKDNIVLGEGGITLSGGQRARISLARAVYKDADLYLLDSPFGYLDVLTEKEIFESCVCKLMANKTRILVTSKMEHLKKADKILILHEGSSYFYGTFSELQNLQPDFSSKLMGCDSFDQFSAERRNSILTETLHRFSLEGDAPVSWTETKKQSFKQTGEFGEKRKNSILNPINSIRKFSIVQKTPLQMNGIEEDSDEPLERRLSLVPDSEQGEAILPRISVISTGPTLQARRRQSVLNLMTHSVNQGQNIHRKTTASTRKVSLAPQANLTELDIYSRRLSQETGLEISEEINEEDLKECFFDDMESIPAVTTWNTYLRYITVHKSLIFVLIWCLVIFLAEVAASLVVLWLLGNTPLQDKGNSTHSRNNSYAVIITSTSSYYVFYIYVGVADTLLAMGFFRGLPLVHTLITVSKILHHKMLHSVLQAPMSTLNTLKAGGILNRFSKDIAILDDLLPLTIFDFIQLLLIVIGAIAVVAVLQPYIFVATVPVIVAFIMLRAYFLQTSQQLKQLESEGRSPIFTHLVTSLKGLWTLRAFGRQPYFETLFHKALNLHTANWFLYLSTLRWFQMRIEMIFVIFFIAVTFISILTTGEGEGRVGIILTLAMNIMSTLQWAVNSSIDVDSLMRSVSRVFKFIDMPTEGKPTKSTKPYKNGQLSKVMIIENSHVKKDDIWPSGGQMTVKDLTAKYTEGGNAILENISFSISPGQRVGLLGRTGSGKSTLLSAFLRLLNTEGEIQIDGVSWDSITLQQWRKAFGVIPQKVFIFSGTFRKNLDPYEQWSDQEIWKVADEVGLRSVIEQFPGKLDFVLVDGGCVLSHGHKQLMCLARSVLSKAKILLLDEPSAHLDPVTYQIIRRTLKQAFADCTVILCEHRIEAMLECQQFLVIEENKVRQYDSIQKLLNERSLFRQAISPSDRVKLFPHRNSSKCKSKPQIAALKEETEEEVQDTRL

Turning to `CCOc1cccc(OCC)c1C1(C(=O)NS(=O)(=O)c2cccc3ncccc23)CC1` [Example I-66, 1-(2,6-diethoxyphenyl)-N-(quinoline-5-sulfonyl)cyclopropane-1-carboxamide], the EC50 runs as follows: under setting [1], under 3 µM; under setting [2], under 3 µM. In addition, the “Maximum % activity (with co-corrector)” value (with co-corrector) is “+++ (≥350)”. The Emax (without co-corrector) is over 150%.
Consider `COc1ccc(C2CCC2)cc1C1(C(=O)NS(=O)(=O)c2cccc3nc(N)ccc23)CC1` [Example I-67, N-(2-aminoquinoline-5-sulfonyl)-1-(5-cyclobutyl-2-methoxyphenyl)cyclopropane-1-carboxamide], for which the EC50 is 3 to 10 µM under setting [1] and under 3 µM under setting [2]. Besides, the “Maximum % activity (with co-corrector)” value (with co-corrector) is “+++ (≥350)”. In addition, where the note is “without co-corrector”, the Emax was over 150%.
With `COc1ccc(C2CC2)cc1C1(C(=O)NS(=O)(=O)c2cccc3nc(C)ccc23)CC1` [Example I-68, 1-(5-cyclopropyl-2-methoxyphenyl)-N-(2-methylquinoline-5-sulfonyl)cyclopropane-1-carboxamide], the EC50 reads like this: under setting [1], under 3 µM; under setting [2], under 3 µM.
For `CCOc1ccc(OC)c(C2(C(=O)NS(=O)(=O)c3cccc4nc(C)ccc34)CC2)c1` [Example I-69, 1-(5-ethoxy-2-methoxyphenyl)-N-(2-methylquinoline-5-sulfonyl)cyclopropane-1-carboxamide], the EC50 under setting [1] was under 3 µM and the EC50 under setting [2] is under 3 µM. For the same compound, where the note is “with co-corrector”, the “Maximum % activity (with co-corrector)” value is “+++ (≥350)”. Moreover, the Emax (without co-corrector) is over 150%.
`COc1ccc(C(C)(C)C)cc1C1(C(=O)NS(=O)(=O)c2cccc3nc(C)ccc23)CC1` [Example I-70, 1-(5-tert-butyl-2-methoxyphenyl)-N-(2-methylquinoline-5-sulfonyl)cyclopropane-1-carboxamide]: the EC50 by setting is: under setting [1], under 3 µM; under setting [2], under 3 µM. The “Maximum % activity (with co-corrector)” value (with co-corrector) is “+++ (≥350)”. Also, under “without co-corrector”, the Emax is over 150%.
`COc1ccc(C(C)C)cc1C1(C(=O)NS(=O)(=O)c2cccc3nc(C)ccc23)CC1` [Example I-71, 1-[2-methoxy-5-(propan-2-yl)phenyl]-N-(2-methylquinoline-5-sulfonyl)cyclopropane-1-carboxamide]: the EC50 under setting [1] is under 3 µM and the EC50 under setting [2] is under 3 µM. The “Maximum % activity (with co-corrector)” value (with co-corrector) is “+++ (≥350)”. Where the note is “without co-corrector”, the Emax was over 150%.
Turning to `Cc1ccc2c(S(=O)(=O)NC(=O)C3(c4cc(C(F)(F)F)cnc4N(C)C)CC3)cccc2n1` [Example I-72, 1-[2-(dimethylamino)-5-(trifluoromethyl)pyridin-3-yl]-N-(2-methylquinoline-5-sulfonyl)cyclopropane-1-carboxamide], the EC50 was 3 to 10 µM under setting [1] and under 3 µM under setting [2]. Besides, the “Maximum % activity (with co-corrector)” value (with co-corrector) is “+++ (≥350)”. In addition, the Emax (without co-corrector) was over 150%.
Consider `COCC1(c2ccc(OC)c(C3(C(=O)NS(=O)(=O)c4cccc5ncccc45)CC3)c2)CC1` [Example I-73, 1-{2-methoxy-5-[1-(methoxymethyl)cyclopropyl]phenyl}-N-(quinoline-5-sulfonyl)cyclopropane-1-carboxamide], for which the EC50 reads like this: under setting [1], under 3 µM; under setting [2], under 3 µM. Also, the “Maximum % activity (with co-corrector)” value (with co-corrector) was “+++ (≥350)”. Also, the Emax (without co-corrector) is over 150%.
Turning to `COCC1(c2ccc(OC)c(C3(C(=O)NS(=O)(=O)c4cccc5nc(C)ccc45)CC3)c2)CC1` [Example I-74, 1-{2-methoxy-5-[1-(methoxymethyl)cyclopropyl]phenyl}-N-(2-methylquinoline-5-sulfonyl)cyclopropane-1-carboxamide], the EC50 was under 3 µM under setting [1] and under 3 µM under setting [2]. Also, the “Maximum % activity (with co-corrector)” value (with co-corrector) is “+++ (≥350)”. In addition, the Emax (without co-corrector) is over 150%.
With `COc1nc2ccccc2cc1C1(C(=O)NS(=O)(=O)c2cccc3nc(C)ccc23)CC1` [Example I-75, 1-(2-methoxyquinolin-3-yl)-N-(2-methylquinoline-5-sulfonyl)cyclopropane-1-carboxamide], the EC50 reads like this: under setting [1], 3 to 10 µM; under setting [2], under 3 µM. The “Maximum % activity (with co-corrector)” value (with co-corrector) was “+++ (≥350)”. Further, where the note is “without co-corrector”, the Emax was over 150%.
For `COc1nc2ccccc2cc1C1(C(=O)NS(=O)(=O)c2cccc3ncccc23)CC1` [Example I-76, 1-(2-methoxyquinolin-3-yl)-N-(quinoline-5-sulfonyl)cyclopropane-1-carboxamide], the EC50 by setting is: under setting [1], 3 to 10 µM; under setting [2], under 3 µM. In addition, the “Maximum % activity (with co-corrector)” value (with co-corrector) is listed as “+++ (≥350)”. In addition, for the setting “without co-corrector”, the Emax is over 150%.
As for `Cc1ccc(OC(C)C)c(C2(C(=O)NS(=O)(=O)c3cccc4ncccc34)CC2)c1` [Example I-77, 1-{5-methyl-2-[(propan-2-yl)oxy]phenyl}-N-(quinoline-5-sulfonyl)cyclopropane-1-carboxamide], the EC50 under setting [1] is under 3 µM and the EC50 under setting [2] is under 3 µM. In addition, for the setting “with co-corrector”, the “Maximum % activity (with co-corrector)” value was “+++ (≥350)”. Also, the Emax (without co-corrector) was over 150%.
Take `Cc1ccc(OC(C)C)c(C2(C(=O)NS(=O)(=O)c3cccc4nc(C)ccc34)CC2)c1` [Example I-78, 1-{5-methyl-2-[(propan-2-yl)oxy]phenyl}-N-(2-methylquinoline-5-sulfonyl)cyclopropane-1-carboxamide]: the EC50 was under 3 µM under setting [1] and under 3 µM under setting [2]. Besides, the “Maximum % activity (with co-corrector)” value (with co-corrector) is given as “+++ (≥350)”. Moreover, under “without co-corrector”, the Emax is over 150%.
Regarding `COc1ccc(C)cc1C1(C(=O)NS(=O)(=O)c2cccc3nc(N)ccc23)CC1` [Example I-79, N-(2-aminoquinoline-5-sulfonyl)-1-(2-methoxy-5-methylphenyl)cyclopropane-1-carboxamide], the EC50 was under 3 µM under setting [1] and under 3 µM under setting [2]. In addition, where the note is “with co-corrector”, the “Maximum % activity (with co-corrector)” value was “+++ (≥350)”. For the setting “without co-corrector”, the Emax is over 150%.
Take `COc1cc(C2CCC2)cc(OC)c1C1(C(=O)NS(=O)(=O)c2cccc3ncccc23)CC1` [Example I-80, 1-(4-cyclobutyl-2,6-dimethoxyphenyl)-N-(quinoline-5-sulfonyl)cyclopropane-1-carboxamide]: the EC50 under setting [1] is 3 to 10 µM and the EC50 under setting [2] was under 3 µM. For the same compound, the “Maximum % activity (with co-corrector)” value (with co-corrector) is given as “+++ (≥350)”. Moreover, the Emax (without co-corrector) was over 150%.
In the case of `Cc1ccc(C)c(C2(C(=O)NS(=O)(=O)c3cccc4nc(N)ccc34)CC2)c1` [Example I-81, N-(2-aminoquinoline-5-sulfonyl)-1-(2,5-dimethylphenyl)cyclopropane-1-carboxamide], the EC50 runs as follows: under setting [1], under 3 µM; under setting [2], under 3 µM. Besides, under “with co-corrector”, the “Maximum % activity (with co-corrector)” value is “+++ (≥350)”. Besides, the Emax (without co-corrector) is over 150%.
As to `CCOc1ccc(C)cc1C1(C(=O)NS(=O)(=O)c2cccc3ncccc23)CC1` [Example I-82, 1-(2-ethoxy-5-methylphenyl)-N-(quinoline-5-sulfonyl)cyclopropane-1-carboxamide], the EC50 runs as follows: under setting [1], under 3 µM; under setting [2], under 3 µM. The “Maximum % activity (with co-corrector)” value (with co-corrector) is “+++ (≥350)”. Further, the Emax (without co-corrector) is over 150%.
